Measurements reported in PubChem BioAssay (NCI).
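These data come from cells grown in 96-well plates and exposed to compound for 48 hours at five concentrations. Here, GI50 denotes the concentration required for 50% inhibition of growth. TGI marks complete inhibition of growth.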

Experiments:
Assay in all cases: DTP human tumour cell line panel, 48 h
EKVX NSCLC = system: EKVX NSCLC
MCF7 breast = system: MCF7 breast
U251 CNS = system: U251 CNS
SK-MEL-28 melanoma = system: SK-MEL-28 melanoma
NCI-H23 lung = system: NCI-H23 lung
UO-31 renal = system: UO-31 renal
COLO 205 colon = system: COLO 205 colon
HOP-62 NSCLC = system: HOP-62 NSCLC
SW-620 colon = system: SW-620 colon
UACC-62 melanoma = system: UACC-62 melanoma
SK-MEL-5 melanoma = system: SK-MEL-5 melanoma
HL-60(TB) leukemia = system: HL-60(TB) leukemia
M14 melanoma = system: M14 melanoma
SN12C renal = system: SN12C renal
RXF 393 renal = system: RXF 393 renal
NCI-H460 lung = system: NCI-H460 lung
NCI-H226 lung = system: NCI-H226 lung
NCI/ADR-RES ovarian = system: NCI/ADR-RES ovarian
OVCAR-8 ovarian = system: OVCAR-8 ovarian
BT-549 breast = system: BT-549 breast
HCC-2998 colon = system: HCC-2998 colon
PC-3 prostate = system: PC-3 prostate
786-0 renal = system: 786-0 renal
SF-295 CNS = system: SF-295 CNS
SF-539 CNS = system: SF-539 CNS
OVCAR-5 ovarian = system: OVCAR-5 ovarian
HOP-92 NSCLC = system: HOP-92 NSCLC
IGROV1 ovarian = system: IGROV1 ovarian
MDA-MB-435 = system: MDA-MB-435
RPMI-8226 leukemia = system: RPMI-8226 leukemia
SK-OV-3 ovarian = system: SK-OV-3 ovarian
T-47D breast = system: T-47D breast
NCI-H522 lung = system: NCI-H522 lung
CCRF-CEM leukemia = system: CCRF-CEM leukemia
LOX IMVI melanoma = system: LOX IMVI melanoma
A549 NSCLC = system: A549 NSCLC
SNB-19 CNS = system: SNB-19 CNS
SK-MEL-2 melanoma = system: SK-MEL-2 melanoma
OVCAR-3 ovarian = system: OVCAR-3 ovarian
TK-10 renal = system: TK-10 renal
SNB-75 CNS = system: SNB-75 CNS
HCT-116 colon = system: HCT-116 colon
A498 renal = system: A498 renal
CAKI-1 renal = system: CAKI-1 renal
SF-268 CNS = system: SF-268 CNS
OVCAR-4 ovarian = system: OVCAR-4 ovarian
HS 578T breast = system: HS 578T breast
MOLT-4 leukemia = system: MOLT-4 leukemia
UACC-257 melanoma = system: UACC-257 melanoma
MDA-MB-468 breast = system: MDA-MB-468 breast
HCT-15 colon = system: HCT-15 colon
KM12 colon = system: KM12 colon
DU-145 prostate = system: DU-145 prostate
MDA-MB-231 breast = system: MDA-MB-231 breast
K-562 leukemia = system: K-562 leukemia
ACHN renal = system: ACHN renal
HT29 colon = system: HT29 colon
MALME-3M melanoma = system: MALME-3M melanoma

SMILES: Cc1nc(Nc2ccccn2)sc1C(=O)CC(SCC(=O)Nc1ccc(Cl)cc1)c1ccccc1F (stereo unspecified)
- GI50 (EKVX NSCLC): 3.15 µM
- TGI (EKVX NSCLC): 13.4 µM
- GI50 (MCF7 breast): 1.25 µM
- TGI (MCF7 breast): 13.8 µM
- GI50 (U251 CNS): 2.22 µM
- TGI (U251 CNS): 6.41 µM
- GI50 (SK-MEL-28 melanoma): 5.45 µM
- TGI (SK-MEL-28 melanoma): 19.7 µM
- GI50 (NCI-H23 lung): 3.84 µM
- TGI (NCI-H23 lung): 15.7 µM
- GI50 (UO-31 renal): 3.44 µM
- TGI (UO-31 renal): 16.4 µM
- GI50 (COLO 205 colon): 2.18 µM
- TGI (COLO 205 colon): 4.67 µM
- GI50 (HOP-62 NSCLC): 2.79 µM
- TGI (HOP-62 NSCLC): 12.3 µM
- GI50 (SW-620 colon): 2.56 µM
- TGI (SW-620 colon): 11.7 µM
- GI50 (UACC-62 melanoma): 2.24 µM
- TGI (UACC-62 melanoma): 10.3 µM
- GI50 (SK-MEL-5 melanoma): 2.2 µM
- TGI (SK-MEL-5 melanoma): 5.86 µM
- GI50 (HL-60(TB) leukemia): > 100 µM
- TGI (HL-60(TB) leukemia): > 100 µM
- GI50 (M14 melanoma): 1.69 µM
- TGI (M14 melanoma): 4.02 µM
- GI50 (SN12C renal): 2.72 µM
- TGI (SN12C renal): 10.5 µM
- GI50 (RXF 393 renal): 2.32 µM
- TGI (RXF 393 renal): 8.73 µM
- GI50 (NCI-H460 lung): 2.23 µM
- TGI (NCI-H460 lung): 5.22 µM
- GI50 (NCI-H226 lung): 7.91 µM
- TGI (NCI-H226 lung): 31.2 µM
- GI50 (NCI/ADR-RES ovarian): 1.81 µM
- TGI (NCI/ADR-RES ovarian): 5.44 µM
- GI50 (OVCAR-8 ovarian): 2.31 µM
- TGI (OVCAR-8 ovarian): 5.88 µM
- GI50 (BT-549 breast): 2.83 µM
- TGI (BT-549 breast): 9.85 µM
- GI50 (HCC-2998 colon): 3.44 µM
- TGI (HCC-2998 colon): 13.8 µM
- GI50 (PC-3 prostate): 4.04 µM
- TGI (PC-3 prostate): 93.6 µM
- GI50 (786-0 renal): 3.74 µM
- TGI (786-0 renal): 14.3 µM
- GI50 (SF-295 CNS): 2.77 µM
- TGI (SF-295 CNS): 12.3 µM
- GI50 (SF-539 CNS): 2.02 µM
- TGI (SF-539 CNS): 4.41 µM
- GI50 (OVCAR-5 ovarian): 2.6 µM
- TGI (OVCAR-5 ovarian): 6.89 µM
- GI50 (HOP-92 NSCLC): 4.94 µM
- TGI (HOP-92 NSCLC): 25.9 µM
- GI50 (IGROV1 ovarian): 3.87 µM
- TGI (IGROV1 ovarian): 20.7 µM
- GI50 (MDA-MB-435): 1.02 µM
- TGI (MDA-MB-435): 2.78 µM
- GI50 (RPMI-8226 leukemia): 3.33 µM
- TGI (RPMI-8226 leukemia): 72.1 µM
- GI50 (SK-OV-3 ovarian): 3.63 µM
- TGI (SK-OV-3 ovarian): 29.2 µM
- GI50 (T-47D breast): 2.28 µM
- TGI (T-47D breast): 9.79 µM
- GI50 (NCI-H522 lung): 2.22 µM
- TGI (NCI-H522 lung): 6.4 µM
- GI50 (CCRF-CEM leukemia): 2.39 µM
- TGI (CCRF-CEM leukemia): > 100 µM
- GI50 (LOX IMVI melanoma): 2.31 µM
- TGI (LOX IMVI melanoma): 10.3 µM
- GI50 (A549 NSCLC): 3.15 µM
- TGI (A549 NSCLC): 22.8 µM
- GI50 (SNB-19 CNS): 3.28 µM
- TGI (SNB-19 CNS): 14.4 µM
- GI50 (SK-MEL-2 melanoma): 2.03 µM
- TGI (SK-MEL-2 melanoma): 4.74 µM
- GI50 (OVCAR-3 ovarian): 1.53 µM
- TGI (OVCAR-3 ovarian): 11.6 µM
- GI50 (TK-10 renal): 4.79 µM
- TGI (TK-10 renal): 16.8 µM
- GI50 (SNB-75 CNS): 1.42 µM
- TGI (SNB-75 CNS): 6.22 µM
- GI50 (HCT-116 colon): 2.2 µM
- TGI (HCT-116 colon): 6.46 µM
- GI50 (A498 renal): 12.7 µM
- TGI (A498 renal): 35.7 µM
- GI50 (CAKI-1 renal): 2.71 µM
- TGI (CAKI-1 renal): 16.9 µM
- GI50 (SF-268 CNS): 3.74 µM
- TGI (SF-268 CNS): 17.3 µM
- GI50 (OVCAR-4 ovarian): 11.4 µM
- TGI (OVCAR-4 ovarian): 71.4 µM
- GI50 (HS 578T breast): 2.14 µM
- TGI (HS 578T breast): 6.17 µM
- GI50 (MOLT-4 leukemia): > 100 µM
- TGI (MOLT-4 leukemia): > 100 µM
- GI50 (UACC-257 melanoma): 4.72 µM
- TGI (UACC-257 melanoma): 19.4 µM
- GI50 (MDA-MB-468 breast): 1.58 µM
- TGI (MDA-MB-468 breast): 5.05 µM
- GI50 (HCT-15 colon): 1.8 µM
- TGI (HCT-15 colon): 11.2 µM
- GI50 (KM12 colon): 1.39 µM
- TGI (KM12 colon): 8.67 µM
- GI50 (DU-145 prostate): 3.34 µM
- TGI (DU-145 prostate): 13.2 µM
- GI50 (MDA-MB-231 breast): 2.64 µM
- TGI (MDA-MB-231 breast): 7.86 µM
- GI50 (K-562 leukemia): > 100 µM
- TGI (K-562 leukemia): > 100 µM
- GI50 (ACHN renal): 3.9 µM
- TGI (ACHN renal): 14.8 µM
- GI50 (HT29 colon): 2.16 µM
- TGI (HT29 colon): 5.44 µM
- GI50 (MALME-3M melanoma): 4.91 µM
- TGI (MALME-3M melanoma): 19.6 µM
